This note sets out measurements from paper PMC10591299, “Targeting SHP2 with an Active Site Inhibitor Blocks Signaling and Breast Cancer Cell Phenotypes” (ACS Bio & Med Chem Au, 2023).

What is called IC50 is the concentration needed to halve the response being measured.

In assay [1] the target is T1, SHP2 (Homo sapiens, UniProt Q06124).
T1 construct: the GST fusion of the PTP domains of SHP2, SHP1, and PTP1B were produced and purified as reported by us previously; GST; made in house
T1 sequence (Q06124 247-517 limits assumed): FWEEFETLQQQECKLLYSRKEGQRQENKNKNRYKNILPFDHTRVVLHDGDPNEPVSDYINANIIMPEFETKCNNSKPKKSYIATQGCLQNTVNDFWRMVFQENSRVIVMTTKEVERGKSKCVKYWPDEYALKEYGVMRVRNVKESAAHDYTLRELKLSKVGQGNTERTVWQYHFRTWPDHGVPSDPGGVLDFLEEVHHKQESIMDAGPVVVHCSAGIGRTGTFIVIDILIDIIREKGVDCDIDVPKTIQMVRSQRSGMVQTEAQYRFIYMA
As to the kind of experiment: PTPase assay, GST-fusion PTP domain of SHP2, DiFMUP substrate. The format is biochemical. As to the method:
After completion of synthesis, both CNBCA and CNBBA were purified on silica gel, and purity was determined by HPLC. The purified compounds were then tested for their effect on the SHP2 enzyme activity and on the activity of the selected control PTPs (SHP1 and PTP1B) by the phosphotyrosyl phosphatase (PTPase) assay as described previously.[30],[31] First, the GST fusion of the PTP domains of SHP2, SHP1, and PTP1B were produced and purified as reported by us previously.[32] The reactions were performed in a buffer containing 10 mM Tris-HCl (pH 7.2), 100 mM NaCl, 1 mM EDTA, 1 mM dithiothreitol (DTT), and 0.01% Tween-20. Briefly, CNBCA or CNBBA was added first in a serial dilution ranging from 100 μM to 97 nM followed by the enzymes (SHP2, SHP1, or PTP1B) to a final concentration of 1 nM. After 5 min of incubation at room temperature, the reactions were started by adding the artificial substrate DiFMUP (6,8-difluoro-4-methylumbelliferyl phosphate) to a final concentration of 20 μM for SHP2, 35 μM for SHP1, and 10 μM for PTP1B in a reaction volume of 100 μL; variations in DiFMUP concentrations reflect the reported Km values for the respective PTPs.[33] The complete mixture was incubated at 37 °C for 20 min, and fluorescence intensity was measured by the Synergy 4 plate reader at the excitation and emission wavelengths of 360 and 460 nm, respectively. The half inhibitory concentration (IC50) value of each compound was calculated and plotted using Graphpad Prism software.
We used the PTPase assay described previously[30],[31] to evaluate the effect of the newly synthesized compounds on the enzymatic activity of SHP2, SHP1, and PTP1B. The PTP domains of the indicated proteins were prepared as reported by us recently.[32] The artificial PTP substrate DiFMUP (6,8-Difluoro-4-Methylumbelliferyl Phosphate) was purchased from Invitrogen. The purified proteins were dialyzed into a phosphatase buffer containing 10 mM Tris-HCl ([…]), 100 mM NaCl, 1.0 mM EDTA, 1.0 mM dithiothreitol (DTT), and 0.01% Tween-20. Briefly, the PTPase reactions were performed in 100 μL volume containing 1 nM enzyme, inhibitors in serial dilutions (12 nM to 100 μM), and DiFMUP to a final concentration of 20 μM for SHP2, 35 μM for SHP1, and 10 μM for PTP1B. Differences in DiFMUP concentrations reflect the reported Km values for each PTP.[37] The mixtures were incubated at 37 °C for 20 min and transferred to 96 well plates, and the fluorescence intensity was measured by a Synergy 4 plate reader at the excitation and emission wavelengths of 360 and 460 nm, respectively. Graphpad Prism software was used to calculate the IC50 values.

Assay [2] has as its target T1, SHP2. Briefly: Enzyme kinetic study (Michaelis-Menten, Lineweaver-Burk) with DiFMUP. The format is biochemical. The following applies: Km increased without change in Vmax. On the procedure: As such, its mechanism of inhibition is expected to be through competitive binding to the active site. To verify this point, we conducted enzyme kinetic studies using the artificial substrate DiFMUP in the presence and absence of CNBCA. Briefly, 400 μM DiFMUP in the PTPase buffer was added to the 12th well in the 96-well plate and then serially diluted to as low as 3.12 μM in the successive wells. After adding the enzyme to a final concentration of 1.0 nM in a total volume of 100 μL, the fluorescence of the enzyme reaction rate was measured for a total of 3 min at 10 s interval in the Synergy 4 plate reader at the excitation and emission wavelengths of 360 and 460 nm, respectively. The data was transformed into relative fluorescence unit (RFU) per second and plotted using the Graphpad software to produce the Michaelis–Menten and the Lineweaver–Burk plots.
In these reactions, the enzyme was added last, and the fluorescence was read for 3 min at 10 s interval. Changes in fluorescence intensity were used to calculate the Km of the SHP2 enzyme for DiFMUP in the presence and absence of CNBCA. The Graphpad Prism was used to prepare the Michaelis–Menten and Lineweaver–Burk plots and to determine the Km values.

For a further assay, the system named is MDA-MB468 cells. As to the kind of experiment: Colony formation in soft agar, MDA-MB468. The format is cell-based. The following applies: MDA-MB468, 500 nM, 10 days, versus vehicle. On the procedure: Since SHP2 is essential for the growth and transformation of BC cells,[8],[9],[11] we determined the effect of SHP2 inhibition with CNBCA in 2D and 3D culture systems. For the effect on cell growth, BC cells (BT474 and MDA-MB468) were seeded in 2D culture and treated with a single concentration of CNBCA (500 nM), the concentration that provided a 50% inhibition of SHP2 mediated signaling in BT474 cells. Images were collected at the start and every 24 h for a total of 72 h (3 days). […] For effect on anchorage independent growth, approximately 10^6 cells were seeded in soft agar as described previously,[24] and treated with CNBCA at 500 nM concentration for 10 days with refeeding and adjustment of compound concentration. […] Finally, the effect of CNBCA on cancer stem cell properties was determined by the suspension assay, in which only cells with stem-like properties only can grow and form mammospheres.[7],[24],[36] Approximately 10^6 cells were seeded in nonadherent 6 cm plates and treated with CNBCA (500 nM) for 10 days with complementation of media and drug concentration.
For colony formation studies, we used the soft agar assay, which keeps cells anchorage independently, allowing determination on the transformation phenotype of cancer cells, including breast cancer cells.[11],[35] For this assay, we first prepared a 5% stock suspension in PBS by boiling it in a microwave. […]

For `CCCCCCCCCOc1ccc(-c2ccc(C(=O)O)cc2)cc1CCCC(=O)O` [CNBCA, 3′-(3-carboxypropyl)-4′-(nonyloxy)-[1,1′-biphenyl]-4-carboxylic acid], at SHP2 [1] (PTP domain, 1 nM enzyme, 20 μM DiFMUP, 37 °C 20 min), the half-inhibitory concentration (IC50) was 870 nM. Besides, the “selectivity ratio SHP2 (reference)” value at SHP2 [1] (SHP2 IC50 as reference) stood at 1.0. At SHP2 [1] (SHP2 IC50 relative to CNBCA), the fold difference worked out at 1.0 fold. Further, the mechanism of inhibition result at SHP2 [2] is “competitive inhibitor”. Also, in the assay on MDA-MB468 cells, the “colony formation in soft agar” value was “fewer and smaller colonies”.
